In one experiment the target is T1, CDK2 (Homo sapiens, UniProt P24941).
T1 construct: endogenous in cells; host or cells: OVCAR-8
As to the kind of experiment: CDK2 degradation by immunoblotting in OVCAR-8 cells. In kind it is cell-based. The note with it: 24 h. The protocol:
(§1) CDK2 and CDK1 Degradation by Immunoblotting
(§2) Ovarian cancer cell line OVCAR-8 were cultured in 12-well plates in complete growth medium. A serial dilution of each compound was added to individual wells from a 2× stock solution, and cells were cultured for 24 hours. Cells were collected by centrifugation, and cell pellets lysed with addition of chilled RIPA buffer supplemented with protease/phosphatase inhibitors followed by incubation for 20 minutes on ice. Lysates were clarified by centrifugation and 5×SDS loading buffer was added to the supernatant followed by heating to 100° C. for 10 minutes. An aliquot of the samples were separated by SDS-PAGE and transferred to a nitrocellulose membrane. Immunoblotting was performed according to standard procedures using anti-CDK2 primary antibody (Abcam ab32147) at 1:1000 dilution and IRDye 800CW goat anti-Rabbit secondary antibody (LICOR) and imaged using a LICOR Odyssey instrument. Blots were stained with anti-beta-Actin primary antibody (Cell Signaling Technology mAb #4970) for normalization. The normalized CDK2/Actin values were calculated as a percent of DMSO treated cells and plotted to determine the concentration at which 50% of CDK2 signal is decreased (DC50). The determination of CDK1 degradation was determined similarly using anti-CDK1 primary antibody (Abcam ab131450).

The target in a further experiment is T2, CDK1 (Homo sapiens, UniProt P06493).
T2 construct: endogenous in cells; host or cells: OVCAR-8
As to the kind of experiment: CDK1 degradation by immunoblotting in OVCAR-8 cells. In kind it is cell-based. The note with it: 24 h. As for the experimental part: as §1, §2
For orientation: Immunoblotting shows a protein as a band on a membrane.

Consider 28 molecules from patent US12097261B2, “CDK2 degraders and uses thereof” (Kymera Therapeutics, Inc., priority 2021, dated 2024).

T2 sequence (P06493 whole entry): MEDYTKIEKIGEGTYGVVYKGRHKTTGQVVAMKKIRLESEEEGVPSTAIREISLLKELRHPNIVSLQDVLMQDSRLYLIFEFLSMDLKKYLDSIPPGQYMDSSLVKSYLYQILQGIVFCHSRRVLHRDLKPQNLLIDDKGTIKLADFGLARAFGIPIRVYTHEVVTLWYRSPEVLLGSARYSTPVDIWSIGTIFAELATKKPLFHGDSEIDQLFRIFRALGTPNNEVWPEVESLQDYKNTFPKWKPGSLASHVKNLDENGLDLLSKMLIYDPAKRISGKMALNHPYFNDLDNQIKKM

On to `Cc1cc(S(=O)(=O)NCCOCCOCCCc2ccc3c(c2)n(C)c(=O)n3C2CCC(=O)NC2=O)ccc1Nc1ncc2cc(C(F)F)c(=O)n([C@@H]3CCC[C@@]3(C)O)c2n1` (some centres unmarked) [I-5], for which the DC50 (usually the concentration giving 50% degradation) is less than 0.01 µM at CDK2 and greater than 5 µM at CDK1.
The like results for `Cc1cc(S(=O)(=O)NCCOCCOCCOCCOCCCc2ccc3c(c2)n(C)c(=O)n3C2CCC(=O)NC2=O)ccc1Nc1ncc2cc(C(F)F)c(=O)n([C@@H]3CCC[C@@]3(C)O)c2n1` (some centres unmarked) [I-7] were, in that order, less than 0.01 µM and greater than 5 µM.
The matching figures for `Cc1cc(S(=O)(=O)NCCOCCOCCCc2cccc3c2n(C)c(=O)n3C2CCC(=O)NC2=O)ccc1Nc1ncc2cc(C(F)F)c(=O)n([C@@H]3CCC[C@@]3(C)O)c2n1` (some centres unmarked) [I-8]: 0.01 to 0.1 µM and greater than 5 µM.
Consider `C[C@@]1(O)CCC[C@H]1n1c(=O)c(C(F)F)cc2cnc(NC3CCN(S(=O)(=O)CCCCCCCCCCNc4cccc5c4C(=O)N(C4CCC(=O)NC4=O)C5=O)CC3)nc21` (some centres unmarked) [I-15], for which the DC50 was in the range of 0.01 to 0.1 µM at CDK2 and 0.1 to 1 µM on CDK1.
The matching figures for `Cc1cc(S(=O)(=O)NCCOCCOCCOCCOCCNc2cccc3c2C(=O)N(C2CCC(=O)NC2=O)C3=O)ccc1Nc1ncc2cc(C(F)F)c(=O)n([C@@H]3CCC[C@@]3(C)O)c2n1` (some centres unmarked) [I-17]: 0.01 to 0.1 µM and greater than 5 µM.
The like results for `Cc1cc(S(=O)(=O)NCCOCCOCCOCCOCCCc2cccc3c2n(C)c(=O)n3C2CCC(=O)NC2=O)ccc1Nc1ncc(Br)c(Nc2cccc(F)c2C(N)=O)n1` (centres unmarked) [I-37, 2-((5-Bromo-2-((4-(N-(15-(1-(2,6-dioxopiperidin-3-yl)-3-methyl-2-oxo-2,3-dihydro-1H-benzo[d]imidazol-4-yl)-3,6,9,12-tetraoxapentadecyl)sulfamoyl)-2-methylphenyl)amino)pyrimidin-4-yl)amino)-6-fluorobenzamide] were, in that order, 0.01 to 0.1 µM and 1 to 5 µM.
The like results for `CC(C)NC(=O)O[C@@H]1CC[C@H](c2cc(NC(=O)c3ccnn3CCOCCOCCOCCOCCCc3cccc4c3n(C)c(=O)n4C3CCC(=O)NC3=O)n[nH]2)C1` (some centres unmarked) [I-55] were, in that order, 0.01 to 0.1 µM and greater than 5 µM.
In the case of `CC(C)NC(=O)O[C@@H]1CC[C@H](c2cc(NC(=O)c3ccnn3CCOCCOCCOCCOCCCc3ccc4c(c3)n(C)c(=O)n4C3CCC(=O)NC3=O)n[nH]2)C1` (some centres unmarked) [I-59], the values for the DC50 at CDK2 and on CDK1 were 0.01 to 0.1 µM and greater than 5 µM, respectively.
The like results for `CC(C)NC(=O)O[C@@H]1CC[C@H](c2cc(NC(=O)c3cnn(CCCCCCCCCCCc4cccn5c(N6CCC(=O)NC6=O)cnc45)c3)n[nH]2)C1` [I-64] were, in that order, 0.01 to 0.1 µM and 1 to 5 µM.
The like results for `CC(C)NC(=O)O[C@@H]1CC[C@H](c2cc(NC(=O)c3cnn(CCCCCCCCCC#Cc4cccc5c(N6CCC(=O)NC6=O)cncc45)c3)n[nH]2)C1` [I-67] were, in that order, 0.1 to 1 µM and 1 to 5 µM.
The matching figures for `CC(C)NC(=O)O[C@@H]1CC[C@H](c2cc(NC(=O)c3cnn(CCCCCCCCCC#Cc4cccn5c(N6CCC(=O)NC6=O)cnc45)c3)n[nH]2)C1` [I-68]: 0.01 to 0.1 µM and greater than 5 µM.
`CC(C)NC(=O)O[C@@H]1CC[C@H](c2cc(NC(=O)c3cnn(CCOCCOCCOCCCc4cccc5c4n(C)c(=O)n5C4CCC(=O)NC4=O)c3)n[nH]2)C1` (some centres unmarked) [I-72]: the DC50 on CDK2 was 0.01 to 0.1 µM; on CDK1, greater than 5 µM.
As for `CC(C)NC(=O)O[C@@H]1CC[C@H](c2cc(CC(=O)c3cnn(CCOCCOCCOCCCc4ccc5c(N6CCC(=O)NC6=O)cncc5c4)c3)[nH]n2)C1` [I-73], the DC50 at CDK2 is 0.1 to 1 µM; at CDK1, greater than 5 µM.
The matching figures for `CC(C)NC(=O)O[C@@H]1CC[C@H](c2cc(NC(=O)c3cnn(CCOCCOCCOCCCc4ccn5c(N6CCC(=O)NC6=O)cnc5c4)c3)n[nH]2)C1` [I-74]: 0.1 to 1 µM and greater than 5 µM.
The matching figures for `CC(C)NC(=O)O[C@@H]1CC[C@H](c2cc(NC(=O)c3cnn(CCOCCOCCOCCCc4ccc5c(c4)n(C)c(=O)n5C4CCC(=O)NC4=O)c3)n[nH]2)C1` (some centres unmarked) [I-75]: 0.01 to 0.1 µM and greater than 5 µM.
The like results for `CC(C)NC(=O)O[C@@H]1CC[C@H](c2cc(NC(=O)c3cnn(CCOCCOCCOCCOCCCc4ccc5c(c4)n(C)c(=O)n5C4CCC(=O)NC4=O)c3)[nH]n2)C1` (some centres unmarked) [I-77] were, in that order, 0.1 to 1 µM and greater than 5 µM.
`CC(C)NC(=O)O[C@@H]1CC[C@H](c2cc(NC(=O)c3ccnn3CCOCCOCCOCCCc3ccc4c(c3)n(C)c(=O)n4C3CCC(=O)NC3=O)[nH]n2)C1` (some centres unmarked) [I-83]: the DC50 on CDK2 is 0.01 to 0.1 µM; on CDK1, greater than 5 µM.
The matching figures for `CC(C)NC(=O)O[C@@H]1CC[C@H](c2cc(NC(=O)c3cnn(CCCCCCCCCc4ccc5c(c4)n(C)c(=O)n5C4CCC(=O)NC4=O)c3)n[nH]2)C1` (some centres unmarked) [I-91]: 0.01 to 0.1 µM and greater than 5 µM.
The matching figures for `CC(C)NC(=O)O[C@@H]1CC[C@H](c2cc(NC(=O)c3cnn(CCCCCCCCCc4cccc5c4n(C)c(=O)n5C4CCC(=O)NC4=O)c3)[nH]n2)C1` (some centres unmarked) [I-92]: 0.01 to 0.1 µM and 1 to 5 µM.
The like results for `CC(C)NC(=O)O[C@@H]1CC[C@H](c2cc(NC(=O)c3cnn(CCCCCCCCCCCc4ccc5c(c4)n(C)c(=O)n5C4CCC(=O)NC4=O)c3)[nH]n2)C1` (some centres unmarked) [I-96] were, in that order, 0.01 to 0.1 µM and greater than 5 µM.
In the case of `CC(C)NC(=O)O[C@@H]1CC[C@H](c2cc(NC(=O)c3cnn(CCCCCCCCCCCc4cccc5c4n(C)c(=O)n5C4CCC(=O)NC4=O)c3)[nH]n2)C1` (some centres unmarked) [I-97], the DC50 fell in the range of 0.01 to 0.1 µM at CDK2 and 1 to 5 µM at CDK1.
The matching figures for `CC(C)NC(=O)O[C@@H]1CC[C@H](c2cc(NC(=O)c3cc(COCCCCCCCCCc4ccc5c(c4)n(C)c(=O)n5[C@H]4CCC(=O)NC4=O)nn3C)n[nH]2)C1` [I-99]: less than 0.01 µM and greater than 5 µM.
The matching figures for `CC(C)NC(=O)O[C@@H]1CC[C@H](c2cc(NC(=O)c3cc(COCCCCCCCCCc4cccc5c4n(C)c(=O)n5[C@H]4CCC(=O)NC4=O)nn3C)n[nH]2)C1` [I-100]: less than 0.01 µM and 0.1 to 1 µM.
The like results for `CC(C)NC(=O)O[C@@H]1CC[C@H](c2cc(CC(=O)c3cc(COCCCCCCCc4cccc5c4n(C)c(=O)n5C4CCC(=O)NC4=O)nn3C)[nH]n2)C1` (some centres unmarked) [I-101] were, in that order, less than 0.01 µM and 0.1 to 1 µM.
Regarding `CC(C)NC(=O)O[C@@H]1CC[C@H](c2cc(NC(=O)Cc3cnn(CCCCCCCCCc4ccc5c(c4)n(C)c(=O)n5C4CCC(=O)NC4=O)c3)[nH]n2)C1` (some centres unmarked) [I-102], the DC50 fell in the range of 0.01 to 0.1 µM at CDK2 and 0.1 to 1 µM on CDK1.
Take `CC(C)NC(=O)O[C@@H]1CC[C@H](c2cc(NC(=O)Cc3cnn(CCCCCCCc4ccc5c(c4)n(C)c(=O)n5C4CCC(=O)NC4=O)c3)n[nH]2)C1` (stereo partly drawn) [I-103, (1R,3S)-3-(3-(2-(1-(7-(1-(2,6-dioxopiperidin-3-yl)-3-methyl-2-oxo-2,3-dihydro-1H-benzo[d]imidazol-5-yl)heptyl)-1H-pyrazol-4-yl)acetamido)-1H-pyrazol-5-yl)cyclopentyl isopropylcarbamate]: the DC50 on CDK2 is 0.01 to 0.1 µM; at CDK1, greater than 5 µM.
The like results for `CC(C)NC(=O)O[C@@H]1CC[C@H](c2cc(NC(=O)Cc3cnn(CCCCCCCCCc4cccc5c4n(C)c(=O)n5C4CCC(=O)NC4=O)c3)[nH]n2)C1` (some centres unmarked) [I-104] were, in that order, 0.01 to 0.1 µM and 1 to 5 µM.
The like results for `Cc1cc(S(=O)(=O)N[C@H]2CC[C@H](OCCOCCCc3ccc4c(c3)n(C)c(=O)n4C3CCC(=O)NC3=O)CC2)ccc1Nc1ncc2ccc(=O)n(C3CCCC3)c2n1` (some centres unmarked) [I-110] were, in that order, less than 0.01 µM and 1 to 5 µM.
